Source: patent US20120245176A1, “NOVEL […] WITH S[…] AS BROAD-[…] INFLUENZA ANTIVIRALS” (priority 2010, published 2012)
Like-named read-outs stand apart in the source and are kept apart here.

Tests used:
[1] = Human Liver Microsomal Stability; conditions: human liver microsomes
[2] = Mouse Liver Microsomal Stability; conditions: mouse liver microsomes
A/H3N2 Brisbane = assay: Antiviral assay in MDCK cells, viral neuraminidase (MUNANA) readout, A/H3N2 Brisbane; format: cell-based, influenza A; conditions: viral NA activity
A/H5N1/Gull_PA = assay: microbe, parasite or virus in culture; format: cell-based, influenza virus; conditions: read-out: A/H5N1/Gull_PA EC50
A/H5N1/Duck_PA = assay: microbe, parasite or virus in culture; format: cell-based, influenza virus; conditions: read-out: A/H5N1/Duck_PA EC50
A/H1N1/Solomon Islands = assay: Antiviral assay in MDCK cells, viral neuraminidase (MUNANA) readout, A/H1N1/Solomon Islands; format: cell-based, influenza A; conditions: viral NA activity
A/H5N1/Duck_MN = assay: microbe, parasite or virus in culture; format: cell-based, influenza virus; conditions: read-out: A/H5N1/Duck_MN EC50
A/H1N1/WSN = assay: Antiviral assay in MDCK cells, viral neuraminidase (MUNANA) readout, A/H1N1/WSN; format: cell-based, influenza A; conditions: MOI 0.001, 48 hrs post infection, viral NA activity
[3] = MOI 0.001, 48 hrs post infection
[4] = Influenza A virus, H3N2, MOI 0.001, 48 hrs post infection
[5] = Influenza A virus, H5N1, MDCK, 48 h
[6] = Influenza A virus, H1N1, MOI 0.001, 48 hrs post infection

Structure (SMILES)	Human Liver Microsomal Stability (% Remaining after 10 minutes) [1] [%]	Mouse Liver Microsomal Stability (% Remaining after 10 minutes) [2] [%]	EC50 (A/H3N2 Brisbane; [3]) [µM]	EC50 (A/H5N1/Gull_PA) [µM]	EC50 (A/H5N1/Duck_PA) [µM]	EC50 (A/H1N1/Solomon Islands; [3]) [µM]	EC50 (A/H5N1/Duck_MN) [µM]	EC50 (A/H1N1/WSN) [µM]	further results
Cc1onc(-c2ccccc2Cl)c1C(=O)N1CCN(c2ccc([N+](=O)[O-])cc2F)CC1 [Example 4]	72	86							
COc1ccccc1-c1noc(C)c1C(=O)N1CCN(c2ccc([N+](=O)[O-])cc2Cl)CC1 [Example 18]			< 10	< 0.1	< 1	< 1	< 1	< 0.1	
Cc1onc(-c2ccc(F)cc2)c1C(=O)N1CCN(c2ccc([N+](=O)[O-])cc2Cl)CC1 [Example 27]	66	86							
Cc1onc(-c2cccc(Cl)c2)c1C(=O)N1CCN(c2ccc([N+](=O)[O-])cc2Cl)CC1 [Example 28]	94	85							
COc1cc(F)ccc1-c1noc(C)c1C(=O)N1CCN(c2ccc([N+](=O)[O-])cc2Cl)CC1 [Example 29]	68	28							
COc1ccc(-c2noc(C)c2C(=O)N2CCN(c3ccc([N+](=O)[O-])cc3Cl)CC2)c(Cl)c1 [Example 31]			> 10	< 0.1	< 1	< 1	< 1	< 0.1	
COc1ncccc1-c1noc(C)c1C(=O)N1CCN(c2ccc([N+](=O)[O-])cc2Cl)CC1 [Example 45]	56	33							
Cc1onc(-c2cccnc2Cl)c1C(=O)N1CCN(c2ccc([N+](=O)[O-])cc2Cl)CC1 [Example 61]	50	18	> 10	< 1	< 1	< 10	< 1	< 0.1	
COc1ccc2ccccc2c1-c1noc(C)c1C(=O)N1CCN(c2ccc([N+](=O)[O-])cc2Cl)CC1 [Example 63]			> 10	< 0.1	< 1	< 1	< 1	< 0.1	
Cc1[nH]nc(-c2ccccc2Cl)c1C(=O)N1CCN(c2ccc([N+](=O)[O-])cc2Cl)CC1 [Example 72]	78	61	> 10	< 1	< 10	> 10	< 10	< 1	
Cc1c[nH]c(-c2ccccc2Cl)c1C(=O)N1CCN(c2ccc([N+](=O)[O-])cc2Cl)CC1 [Example 75, (4-(2-chloro-4-nitrophenyl)piperazin-1-yl)(2-(2-chlorophenyl)-4-methyl-1H-pyrrol-3-yl)methanone]									EC50 (A/H3N2 Brisbane; [4]): > 10 µM; EC50 (A/H5N1/Gull_PA; [5]): < 0.1 µM; EC50 (A/H5N1/Duck_PA; [5]): < 1 µM; EC50 (A/H1N1/Solomon Islands; [6]): < 10 µM; EC50 (A/H5N1/Duck_MN; [5]): < 1 µM; EC50 (A/H1N1/WSN; Influenza A virus): < 0.1 µM
Cc1cnn(-c2ccccc2Cl)c1C(=O)N1CCN(c2ccc([N+](=O)[O-])cc2Cl)CC1 [Example 77]			> 10	< 1	< 10	> 10	< 10	< 1	
COc1ccccc1-c1n[nH]c(C)c1C(=O)N1CCN(c2ccc([N+](=O)[O-])cc2Cl)CC1 [Example 80]	72	65	> 10	< 1	< 10	< 10	< 10	< 10	
COc1ccccc1-c1nnn(C)c1C(=O)N1CCN(c2ccc([N+](=O)[O-])cc2Cl)CC1 [Example 81]	73	45	> 10	< 0.1	< 1	< 10	< 1	< 0.1	
COc1ccccc1-c1ncn(C)c1C(=O)N1CCN(c2ccc([N+](=O)[O-])cc2Cl)CC1 [Example 82]	45	43	> 10	< 1	< 10	> 10	< 10	< 1	
COc1ccccc1-c1n[nH]c(C)c1C(=O)N1CCN(c2ncc([N+](=O)[O-])cc2Cl)CC1 [Example 83]	52	16							
COc1ccccc1-c1nnn(C)c1C(=O)N1CCN(c2ncc([N+](=O)[O-])cc2Cl)CC1 [Example 86]			> 10	< 1	< 10	< 10	< 10	< 1	
Cc1nnn(-c2ccccc2Cl)c1C(=O)N1CCN(c2ccc([N+](=O)[O-])cc2Cl)CC1 [Example 88]	47	23	> 10	< 1	< 10	< 10	< 10	< 1	
COc1ccccc1-c1noc(C)c1C(=O)N1CCN(c2ncc(Cl)cc2Br)CC1 [Example 129]			< 10	< 1	< 10	< 10	< 10	< 1	
Cc1cc(Br)cnc1N1CCN(C(=O)c2c(-c3ccccc3Cl)noc2C)CC1 [Example 132, (4-(5-bromo-3-methylpyridin-2-yl)piperazin-1-yl)(3-(2-chlorophenyl)-5-methylisoxazol-4-yl)methanone]									EC50 (A/H3N2 Brisbane; [4]): > 10 µM; EC50 (A/H5N1/Gull_PA; [5]): > 10 µM; EC50 (A/H5N1/Duck_PA; [5]): > 10 µM; EC50 (A/H1N1/Solomon Islands; [6]): < 10 µM; EC50 (A/H5N1/Duck_MN; [5]): > 10 µM; EC50 (A/H1N1/WSN; Influenza A virus): < 1 µM
Cc1c[nH]c(-c2ccccc2Cl)c1C(=O)N1CCN(c2ncc(Cl)cc2Cl)CC1 [Example 133]			< 10	< 10	> 10	< 10	> 10	< 1	
Cc1onc(-c2ccccc2O)c1C(=O)N1CCN(c2ncc(Cl)cc2Cl)CC1 [Example 142, (4-(3,5-dichloropyridin-2-yl)piperazin-1-yl)(3-(2-hydroxyphenyl)-5-methylisoxazol-4-yl)methanone]	80	34							
Cc1onc(-c2ccccc2C(N)=O)c1C(=O)N1CCN(c2ccc([N+](=O)[O-])cc2Cl)CC1 [Example 155, 2-(4-(4-(2-chloro-4-nitrophenyl)piperazine-1-carbonyl)-5-methylisoxazol-3-yl)benzamide]	80	61							
COc1ccc(N)cc1-c1noc(C)c1C(=O)N1CCN(c2ncc(Cl)cc2Cl)CC1 [Example 159, (3-(5-amino-2-methoxyphenyl)-5-methylisoxazol-4-yl)(4-(3,5-dichloropyridin-2-yl)piperazin-1-yl)methanone]	62	36							
COc1ccc(NS(C)(=O)=O)cc1-c1noc(C)c1C(=O)N1CCN(c2ncc(Cl)cc2Cl)CC1 [Example 161, N-(3-(4-(4-(3,5-dichloropyridin-2-yl)piperazine-1-carbonyl)-5-methylisoxazol-3-yl)-4-methoxyphenyl)methanesulfonamide]	70	8							
COc1ccc(NS(C)(=O)=O)cc1-c1noc(C)c1C(=O)N1CCN(c2ccc([N+](=O)[O-])cc2Cl)CC1 [Example 163]	75	49							
COc1ccc(NC(C)=O)cc1-c1noc(C)c1C(=O)N1CCN(c2ccc([N+](=O)[O-])cc2Cl)CC1 [Example 165]			> 10	< 1	< 10	< 1	< 10	< 1	
Cc1onc(-c2ccccc2)c1C(=O)N1CCN(c2ccc([N+](=O)[O-])cc2Cl)CC1 [reference compound]	40	20							
Cc1onc(-c2ccccc2Cl)c1C(=O)N1CCN(c2ccc([N+](=O)[O-])cc2Cl)CC1 [reference compound]	6	0							
